Patent US20230131899A1, “INHIBITORS OF MICROBIALLY INDUCED AMYLOID” (Axial Therapeutics, Inc., priority 2020, published 2023)
Where two headings read alike, the source gives them in different places.

Biological target: T1, human α-synuclein (Homo sapiens, UniProt P37840)
T1 construct: the full-length gene for untagged human α-synuclein was inserted; made in house; host or cells: E. coli BL21(DE3), plasmid derived from pT7 or pET11a
Experiment: Cell-free Thioflavin T assay of α-synuclein aggregation (αSyn ThT Assay)
Assay type: biochemical
Settings: αSyn 50 μM
Summary of the method: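 Untagged full-length human α-synuclein from E. coli, 50 μM, with 20-40 μM ThT, 1% DMSO, compound at 20-100 μM and a glass bead, 37° C. with shaking. Fluorescence (ex 438/em 495 nm) read hourly to 73 h. Compound-only background subtracted and values normalised to vehicle at 36-72 h or final timepoint, giving % inhibition.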

[1] = class symbol, compounds 100 μM, read-out: αSyn ThT Assay % inhibition, activity range
[2] = mean percent inhibition relative to DMSO control, compounds 100 μM, read-out: αSyn ThT Assay % inhibition
[3] = mean % inhibition of αSyn aggregation relative to DMSO control, compounds at 100 μM, read-out: αSyn ThT Assay % Inhibition
[4] = compounds at 100 μM, class symbol, read-out: αSyn ThT Assay % Inhibition (activity range)

Row | SMILES | inhibition at 100 µM [1] | inhibition at 100 µM [2] | inhibition at 100 µM [3] | inhibition at 100 µM [4]
1 | COc1ccc(CN2CC(C(=O)O)n3c2c(-c2cccc(C(F)(F)F)c2)c(Cc2cccc4ccccc24)c(Cl)c3=O)cc1 (centres unmarked) [Compound 192, 6-chloro-1-(4-methoxybenzyl)-7-(naphthalen-1-ylmethyl)-5-oxo-8-(3-(trifluoromethyl)phenyl)-1,2,3,5-tetrahydroimidazo[1,2-a]pyridine-3-carboxylic acid] | 31 to 60% | 59% | – | –
2 | CCCCN1CC(C(=O)O)n2c(c(-c3cccc(C(F)(F)F)c3)c(Cc3cccc4ccccc34)c(C(N)=O)c2=O)S1(=O)=O (centres unmarked) [Compound 177, 2-butyl-7-carbamoyl-8-(naphthalen-1-ylmethyl)-6-oxo-9-(3-(trifluoromethyl)phenyl)-3,4-dihydro-2H,6H-pyrido[1,2-e][1,2,5]thiadiazine-4-carboxylic acid 1,1-dioxide] | > 60% | 97% | – | –
3 | O=C(O)C1CN(CCCO)S(=O)(=O)c2c(-c3cccc(C(F)(F)F)c3)c(Cc3cccc4ccccc34)cc(=O)n21 (centres unmarked) [Compound 056, 2-(3-hydroxypropyl)-8-(naphthalen-1-ylmethyl)-6-oxo-9-(3-(trifluoromethyl)phenyl)-3,4-dihydro-2H,6H-pyrido[1,2-e][1,2,5]thiadiazine-4-carboxylic acid 1,1-dioxide] | – | – | 59% | 31 to 60%
4 | CCNC(=O)c1c(Cc2cccc3ccccc23)c(-c2cccc(C(F)(F)F)c2)c2n(c1=O)C(C(=O)O)CN(C)S2(=O)=O (centres unmarked) [Compound 156, 7-(ethylcarbamoyl)-2-methyl-8-(naphthalen-1-ylmethyl)-6-oxo-9-(3-(trifluoromethyl)phenyl)-3,4-dihydro-2H,6H-pyrido[1,2-e][1,2,5] thiadiazine-4-carboxylic acid 1,1-dioxide] | > 60% | 70% | – | –
5 | O=C(O)c1c(-c2ccccc2)sc2c(-c3cccc(C(F)(F)F)c3)c(Cc3cccc4ccccc34)cc(=O)n12 [Compound 051, 7-(naphthalen-1-ylmethyl)-5-oxo-2-phenyl-8-(3-(trifluoromethyl)phenyl)-5H-thiazolo[3,2-a]pyridine-3-carboxylic acid] | – | – | 47% | 31 to 60%
6 | CCCN1CC(C(=O)O)n2c(c(-c3cccc(C(F)(F)F)c3)c(Cc3cccc4ccccc34)c(NC(=O)C(C)C)c2=O)S1(=O)=O (centres unmarked) [Compound 152, 7-isobutyramido-8-(naphthalen-1-ylmethyl)-6-oxo-2-propyl-9-(3-(trifluoromethyl)phenyl)-3,4-dihydro-2H,6H-pyrido[1,2-e][1,2,5]thiadiazine-4-carboxylic acid 1,1-dioxide] | 31 to 60% | 54% | – | –
7 | O=C(O)C1CN(Cc2cccc(O)c2)c2c(-c3cccc(C(F)(F)F)c3)c(Cc3cccc4ccccc34)c(Cl)c(=O)n21 (centres unmarked) [Compound 196, 6-chloro-1-(3-hydroxybenzyl)-7-(naphthalen-1-ylmethyl)-5-oxo-8-(3-(trifluoromethyl)phenyl)-1,2,3,5-tetrahydroimidazo[1,2-a]pyridine-3-carboxylic acid] | > 60% | 61% | – | –
8 | Cn1c(=O)c2c(ncn2CCCCCN2CC(C(=O)O)n3c(c(-c4cccc(C(F)(F)F)c4)c(Cc4cccc5ccccc45)cc3=O)S2(=O)=O)n(C)c1=O (centres unmarked) [Compound 034, 2-(5-(1,3-dimethyl-2,6-dioxo-1,2,3,6-tetrahydro-7H-purin-7-yl)pentyl)-8-(naphthalen-1-ylmethyl)-6-oxo-9-(3-(trifluoromethyl)phenyl)-3,4-dihydro-2H,6H-pyrido[1,2-e][1,2,5]thiadiazine-4-carboxylic acid 1,1-dioxide] | – | – | 5% | -10 to 10%
9 | CNC(=O)CCCN1CC(C(=O)O)n2c(c(-c3cccc(C(F)(F)F)c3)c(Cc3cccc4ccccc34)cc2=O)S1(=O)=O (centres unmarked) [Compound 037, 2-(4-(methylamino)-4-oxobutyl)-8-(naphthalen-1-ylmethyl)-6-oxo-9-(3-(trifluoromethyl)phenyl)-3,4-dihydro-2H,6H-pyrido[1,2-e][1,2,5]thiadiazine-4-carboxylic acid 1,1-dioxide] | – | – | 36% | 31 to 60%
10 | O=C(O)c1c(CCc2ccccc2)sc2c(-c3cccc(C(F)(F)F)c3)c(Cc3cccc4ccccc34)cc(=O)n12 [Compound 062, 7-(naphthalen-1-ylmethyl)-5-oxo-2-phenethyl-8-(3-(trifluoromethyl)phenyl)-5H-thiazolo[3,2-a]pyridine-3-carboxylic acid] | – | – | 87% | > 60%
11 | CC(C)CN1CC(C(=O)O)n2c1c(-c1cccc(C(F)(F)F)c1)c(Cc1cccc3ccccc13)c(Cl)c2=O (centres unmarked) [Compound 164, 6-chloro-1-isobutyl-7-(naphthalen-1-ylmethyl)-5-oxo-8-(3-(trifluoromethyl)phenyl)-1,2,3,5-tetrahydroimidazo[1,2-a]pyridine-3-carboxylic acid] | 31 to 60% | 43% | – | –
12 | O=C(O)C1COc2c(-c3cccc(C(F)(F)F)c3)c(Cc3cccc4ccccc34)cc(=O)n21 (centres unmarked) [Compound 064, 7-(naphthalen-1-ylmethyl)-5-oxo-8-(3-(trifluoromethyl)phenyl)-2,3-dihydro-5H-oxazolo[3,2-a]pyridine-3-carboxylic acid] | – | – | 37% | 31 to 60%
13 | CCc1c(Cc2cccc3ccccc23)c(-c2cccc(C(F)(F)F)c2)c2n(c1=O)C(C(=O)O)CN2Cc1ccc(OC)cc1 (centres unmarked) [Compound 161, 6-ethyl-1-(4-methoxybenzyl)-7-(naphthalen-1-ylmethyl)-5-oxo-8-(3-(trifluoromethyl)phenyl)-1,2,3,5-tetrahydroimidazo[1,2-a]pyridine-3-carboxylic acid] | 31 to 60% | 44% | – | –
14 | CCCCN1CC(C(=O)O)n2c1c(-c1cccc(C(F)(F)F)c1)c(Cc1cccc3ccccc13)c(Cl)c2=O (centres unmarked) [Compound 163, 1-butyl-6-chloro-7-(naphthalen-1-ylmethyl)-5-oxo-8-(3-(trifluoromethyl)phenyl)-1,2,3,5-tetrahydroimidazo[1,2-a]pyridine-3-carboxylic acid] | 31 to 60% | 47% | – | –
15 | O=C(O)C1CSc2c(-c3cccc(C(F)(F)F)c3)c(Cc3cccc4ccccc34)c(CO)c(=O)n21 (centres unmarked) [Compound 057, 6-(hydroxymethyl)-7-(naphthalen-1-ylmethyl)-5-oxo-8-(3-(trifluoromethyl)phenyl)-2,3-dihydro-5H-thiazolo[3,2-a]pyridine-3-carboxylic acid] | – | – | 54% | 31 to 60%
16 | O=C(O)C1CN(Cc2ccccc2)c2c(-c3cccc(C(F)(F)F)c3)c(Cc3cccc4ccccc34)cc(=O)n21 (centres unmarked) [Compound 187, 1-benzyl-7-(naphthalen-1-ylmethyl)-5-oxo-8-(3-(trifluoromethyl)phenyl)-1,2,3,5-tetrahydroimidazo[1,2-a]pyridine-3-carboxylic acid] | 31 to 60% | 45% | – | –
17 | Cn1c(=O)c2c(nc(CCCCCN3CC(C(=O)O)n4c(c(-c5cccc(C(F)(F)F)c5)c(Cc5cccc6ccccc56)cc4=O)S3(=O)=O)n2C)n(C)c1=O (centres unmarked) [Compound 045, 8-(naphthalen-1-ylmethyl)-6-oxo-9-(3-(trifluoromethyl)phenyl)-2-(5-(1,3,7-trimethyl-2,6-dioxo-2,3,6,7-tetrahydro-1H-purin-8-yl)pentyl)-3,4-dihydro-2H,6H-pyrido[1,2-e][1,2,5]thiadiazine-4-carboxylic acid 1,1-dioxide] | – | – | 15% | 11 to 30%
18 | CN1CC(C(=O)O)n2c(c(-c3cccc(C(F)(F)F)c3)c(Cc3cccc4ccccc34)c(NCc3ccccc3)c2=O)S1(=O)=O (centres unmarked) [Compound 071] | – | – | 38% | 31 to 60%
19 | O=C(O)[C@@H]1CN(Cc2ccccc2)c2c(-c3cccc(C(F)(F)F)c3)c(Cc3cccc4ccccc34)c(Cl)c(=O)n21 (single isomer, unassigned) [Compound 004a] | 31 to 60% | 42% | – | –
20 | CCCCCN1CC(C(=O)O)n2c(c(-c3cccc(C(F)(F)F)c3)c(Cc3cccc4ccccc34)cc2=O)S1(=O)=O (single isomer, unassigned) [Compound 025a, 8-(naphthalen-1-ylmethyl)-6-oxo-2-pentyl-9-(3-(trifluoromethyl)phenyl)-3,4-dihydro-2H,6H-pyrido[1,2-e][1,2,5]thiadiazine-4-carboxylic acid 1,1-dioxide] | – | – | 50% | 31 to 60%
21 | CCCN1CC(C(=O)O)n2c(c(-c3cccc(C(F)(F)F)c3)c(Cc3cccc4ccccc34)c(NC(=O)CC)c2=O)S1(=O)=O (centres unmarked) [Compound 153, 8-(naphthalen-1-ylmethyl)-6-oxo-7-propionamido-2-propyl-9-(3-(trifluoromethyl)phenyl)-3,4-dihydro-2H,6H-pyrido[1,2-e][1,2,5]thiadiazine-4-carboxylic acid 1,1-dioxide] | 31 to 60% | 48% | – | –
22 | CCCN1CC(C(=O)O)n2c(c(-c3cccc(C(F)(F)F)c3)c(Cc3cccc4ccccc34)cc2=O)S1(=O)=O (single isomer, unassigned) [Compound 016b, 8-(naphthalen-1-ylmethyl)-6-oxo-2-propyl-9-(3-(trifluoromethyl)phenyl)-3,4-dihydro-2H,6H-pyrido[1,2-e][1,2,5]thiadiazine-4-carboxylic acid 1,1-dioxide] | – | – | 95% | > 60%
